Each structure is given as a SMILES string.

The nature of the data set: gradient 5% acetonitrile 3 min, to 50% in 2 min, to 85% in 15 min, held 3 min, 100 µL/min. Conditions: column: Zorbax Extend-C18 2.1 x 50 mm; eluents: water / acetonitrile, 0.1% formic acid. The method in brief:
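A Zorbax Extend-C18 column (2.1 × 50 mm, 1.8 μm) run at 100 μL/min with water and acetonitrile, both containing 0.1% formic acid, separated mixtures of ~100 pure standards. The HPLC was coupled to a quadrupole time-of-flight mass spectrometer operated in positive and negative ionization mode, with dead and dwell volumes of 40 μL and 900 μL. Each retention time was taken from a computationally picked adduct peak that was then manually inspected.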
In turn, `CCOC(=O)c1ccc2nc(C(F)(F)F)nc(NCCCc3ccccc3)c2c1` showed an RP-LC retention time of 1300 s.
As to `CCn1cc(-c2nc(CC(=O)NCc3cccc(C)c3)cs2)c2cccnc21`, the RP-LC retention time was 892 s.
With `CC(C)C(=O)Nc1cc2c(cc1S(=O)(=O)c1ccc(F)cc1)n(C)c(=O)n2C` the figure was 790 s.
As for `COC(=O)c1ccccc1NC(=O)N1CCC(C(=O)NCc2csc(-c3ccccc3)n2)CC1`, the figure is 902 s; as for `CC(=O)OCCNc1nc(-c2ccccc2)nc2ccccc12`, 623 s; as for `Cn1c(=O)n(C)c2cc(Sc3ccccc3)c(NC(=O)C3CC3)cc21`, 849 s.
As for `COCC1CN(S(=O)(=O)c2cc(F)ccc2OC)CC12CCNCC2` (stereo unspecified), the figure is 611 s; as for `CC(C(=O)O)c1ccc2c(c1)Cc1cccnc1O2` (stereo unspecified), 797 s.
Turning to `Cc1cnc(-c2ccccc2)n1C1CCN(S(=O)(=O)Cc2ccccc2)CC1`, the RP-LC retention time was determined as 686 s.
With `Cc1oc2c(c1C(=O)NCCc1ccccc1)C1=NC(C)(C)CN1C=N2` the figure was 653 s; with `CCc1cc(C(=O)NC2CC2)nc2cc(-c3cccs3)nn12`, 1010 s; with `CCOc1ccccc1C(=O)Nc1ccc(Cl)c(C(F)(F)F)c1`, 1230 s.
As for `COc1ccccc1C(=O)N1CCc2cn(C)c3cccc(c23)C1`, the figure is 920 s; as for `CCOc1ccc(C(=O)Nc2nc(-c3cccc(Br)c3)cs2)cc1`, 1240 s; as for `CC(C)NC(=O)c1ccc(OCC2CCCN(C(=O)c3ccc(F)c(Cl)c3)C2)cc1` (stereo unspecified), 915 s.
With `CCc1c2c(nc3sc(C(=O)NCC4CCCO4)c(N)c13)CC(C)(C)CC2=O` (stereo unspecified) the figure was 836 s; with `CCn1cc(CCNC(=O)Cc2cccs2)c2cccnc21`, 651 s.
For `COCc1ncc(C)n1CC1CCN(Cc2sccc2C)CC1`, the RP-LC retention time stood at 534 s.
On to `Cc1ccc(-n2c(=O)n(CC(=O)N3CCCCC3)c3cccnc32)cc1`, for which the RP-LC retention time came out at 780 s.
On to `N#Cc1ccc(N2CCN(C(=O)COc3ccc4[nH]cc(CCN)c4c3)CC2)cc1`, for which the RP-LC retention time is 684 s.
Consider `Cn1nccc1C(=O)N1CCc2c([nH]c3ccccc23)C1c1ccc(F)cc1` (stereo unspecified), for which the RP-LC retention time came to 995 s.
As for `CC(C)n1c(CCNC(=O)c2ccc(F)cc2F)nc2cccnc21`, the figure is 671 s.
With `Cc1occc1-c1nnc(SCC(=O)N2CCCc3ccccc32)o1` the figure was 962 s.
With `COCc1nnc(C(=O)Nc2ccc(C(=O)NCCc3c[nH]c4ccc(Cl)cc34)cc2)s1` the figure was 893 s; with `CC(C)Cn1cc(S(=O)(=O)Nc2ccc(Cl)cc2F)c2cccnc21`, 1010 s; with `O=S(=O)(NCCc1c[nH]c2ncccc12)c1ccc(Br)s1`, 673 s.
`CCCN1C(=O)c2c(C(=O)N3CCOCC3)ncn2CC1(C)C(=O)NCc1ccc(F)cc1` (stereo unspecified) came in with an RP-LC retention time of 618 s.
With `O=C(Nc1cnc2ccccc2c1)N(c1ccccc1)c1ccccc1` the figure was 754 s.
With `O=C(CCc1c(-c2ccc(Cl)cc2)nc2ccccn12)NCc1ccco1` the figure was 655 s; with `COc1ccc(OC)c(S(=O)(=O)N2CCCC(C(=O)NCc3ccccn3)C2)c1` (stereo unspecified), 615 s.
`Cc1nnc2ccc(-c3noc(-c4ccccc4F)n3)cn12` returned an RP-LC retention time of 770 s.
In the case of `COc1ccc(S(=O)(=O)Nc2ccccc2C(=O)Nc2ccc3c(c2)OCCO3)cc1`, the RP-LC retention time was 880 s.
As for `Cc1ccc(-c2noc(CN3C(=O)COc4ccc(Cl)cc43)n2)cc1`, the figure is 1150 s.
For the molecule `O=C(NCc1ccccc1Br)c1cn2c(n1)COCC2`, the RP-LC retention time is 680 s.
`Cc1noc(C)c1C1CCCN1C(=O)c1cnn2c(C(F)(F)F)cc(-c3ccco3)nc12` (stereo unspecified) displayed an RP-LC retention time of 875 s.
As for `COc1ccc(-c2nnc(-c3nc(N4CCC5(CC4)OCCO5)c4ccccc4n3)o2)cc1`, the RP-LC retention time worked out at 936 s.
`CCOc1ccc(-c2cc3c(=O)n(Cc4nc(-c5cccc(OCC)c5)no4)ncn3n2)cc1` showed an RP-LC retention time of 1220 s.
As for `O=C(CSc1cc(N2CCN(c3ccccc3F)CC2)ncn1)NC1CCCC1`, the figure is 963 s.
`CC1CCN(c2cc(-c3noc(C(=O)N4CCN(C5CCCCC5)CC4)n3)ccn2)CC1` yielded an RP-LC retention time of 647 s.
As for `COC(=O)c1cc(OCC(=O)Nc2ccc3c(c2)OCO3)c2cc(Cl)ccc2n1`, the figure is 863 s.
Turning to `Cc1nc(-n2nc(C)c(CC(=O)N3CCCCCC3)c2C)sc1C`, the RP-LC retention time was determined as 1010 s.
As for `O=C(CSc1nnc(-c2ccc(Cl)cc2)o1)Nc1nccs1`, the RP-LC retention time amounted to 867 s.
In turn, `O=C(c1ccc(Cn2cncn2)cc1)N1CCN(c2ccccc2)CC1` yielded an RP-LC retention time of 707 s.
Take `CCc1noc(NC(C)=O)c1-c1ccc(OC)c(S(=O)(=O)Nc2ccc(C)c(C)c2)c1`: the RP-LC retention time is 846 s.
With `CCc1c(C(=O)O)nnn1Cc1cccc(OC)c1` the figure was 687 s; with `Cn1c(=O)sc2cc(S(=O)(=O)N3CCC(C(=O)Nc4ccc(F)cc4)CC3)ccc21`, 854 s; with `O=C(O)/C=C/C(=O)Nc1cccc2cccnc12`, 751 s.
As for `COc1ccccc1-c1nc(-c2ccc3c(c2)oc(=O)n3C(C)C)no1`, the figure is 1090 s.
As for `O=C(Nc1cnc(-c2cccc(Cl)c2)nc1)C1CCC1`, the figure is 1020 s; as for `NC(=O)c1cnn(-c2cccc(F)c2)c1-n1cccc1`, 734 s.
`O=C(C1CCCN(c2ccc(-c3ccccc3)nn2)C1)N1CCN(c2ccccc2F)CC1` (stereo unspecified) yielded an RP-LC retention time of 788 s.
Take `Clc1ccc(-c2nc3cnccn3c2Nc2ccc3c(c2)OCO3)cc1`: the RP-LC retention time amounted to 930 s.
Regarding `CN(C)[C@@H](CCOc1cccc2ccccc12)c1ccccc1`, the RP-LC retention time came out at 807 s.
With `O=C(CSc1ccc(-c2ccccn2)nn1)N1CCCCC1` the figure was 669 s; with `CC(C)c1nc(-n2cccc2)sc1C(=O)NCc1ccccc1`, 1140 s.
As for `CC(C)c1ccccc1NC(=O)CN1CCN(c2ccc(Cl)cc2)C1=O`, the figure is 906 s; as for `Cc1cc(C)c(Cn2cnc3ccccc32)c(C)c1`, 611 s.
With `CC1(C(=O)NCc2ccccc2)CN(S(C)(=O)=O)CC(=O)N1Cc1cccc(Br)c1` (stereo unspecified) the figure was 815 s; with `COc1ccc2c(CCNC(=O)Nc3ccc(Cl)cc3)c[nH]c2c1`, 711 s; with `O=C(Cn1cccc(-c2nc(-c3ccc(F)cc3)no2)c1=O)NCc1ccccc1Br`, 898 s.
As for `CCOC(=O)c1c(C)[nH]c(CCC(=O)NC2CCCC2)c1C`, the RP-LC retention time came out at 780 s.
With `CC(C)c1noc(-c2cccnc2N2CCCN(Cc3ccccc3Cl)CC2)n1` the figure was 723 s; with `Cc1nn(-c2ccccc2)c(C)c1S(=O)(=O)Nc1ccc(S(N)(=O)=O)cc1`, 731 s.
With `O=C(Nc1nccn(-c2ccc3c(c2)CCC3)c1=O)c1ccc(Cl)cc1` the figure was 962 s.
As for `CCc1nc2cc(N3CCC(C(=O)NC(C)c4ccc(OC)cc4)CC3)cnc2nc1CC` (stereo unspecified), the figure is 868 s.
Consider `COCc1nc2cccnc2n1C1CCN(C(=O)Nc2cc(C)ccc2C)CC1`, for which the RP-LC retention time is 710 s.
With `COc1ccc(OC)c(C2NC(=O)NC(C)=C2C(=O)OCC(F)(F)C(F)(F)F)c1` (stereo unspecified) the figure was 801 s.
As for `CCS(=O)(=O)Nc1ccc(C2(C(=O)NCc3ccccc3)CCCCC2)cc1`, the figure is 903 s.
As for `COC(=O)c1c(-c2ccc(Cl)cc2)noc1N1CCN(C(=O)c2ccco2)CC1`, the figure is 978 s; as for `Cc1ccc(CNC(=O)C2CC(=O)N(c3ccc4oc(C)nc4c3)C2)cc1` (stereo unspecified), 732 s; as for `CC(C(=O)Nc1ccc(F)cc1F)C1CCN(C(=O)Nc2ccccc2)CC1` (stereo unspecified), 834 s.
As to `CCc1ccc(S(=O)(=O)N2CCC3(CC2)NCCN=C3NCc2ccccc2)cc1`, the RP-LC retention time worked out at 742 s.
Turning to `CCCn1c(=O)sc2cc(S(=O)(=O)N3CCC(C(=O)Nc4cccc(C)n4)CC3)ccc21`, the RP-LC retention time came to 844 s.
With `CSc1ccc(CNC(=O)Cc2c(C(=O)O)c(C)cn2C)cc1` the figure was 757 s; with `COC[C@@H]1OCCN(S(=O)(=O)c2cc(OC)ccc2OC)[C@H]1c1ccccc1`, 896 s; with `CN(C)S(=O)(=O)c1ccc2c(c1)N(CC(=O)NCCc1ccco1)C(=O)C1CCCCN21` (stereo unspecified), 842 s.
`CCc1ccccc1NC(=O)N1CCCC1c1nc(-c2ccccc2)no1` (stereo unspecified) had an RP-LC retention time of 987 s.
With `CCCn1cnc2cc(-c3noc(CNC(=O)c4ccccc4)n3)ccc21` the figure was 667 s.
As for `O=C(Nc1ccc(F)cc1)N1CCc2nc(-c3ccc(Cl)cc3)ncc2C1`, the figure is 1010 s; as for `CCS(=O)(=O)N1CCC(Cc2ccc(CN3CCOCC3)cc2)CC1`, 622 s.
As for `CC(O)CCC(=O)NCCc1nc2ccccc2n1Cc1ccccc1F` (stereo unspecified), the figure is 566 s.

The record behind these values is the METLIN SMRT retention time set (Domingo-Almenara et al. 2019).
